Assay results from the supplement of paper PMC6045584.
± gives the standard deviation of the averaged measurements.

Compound: COc1cccc2c1C(=O)c1c(O)c3c(c(O)c1C2=O)C[C@@](O)(C(=O)CO)C[C@@H]3O[C@H]1C[C@H](N)[C@H](O)[C@H](C)O1 [DOXORUBICIN]
Assay: surviving fraction relative to DMSO-only wells; higher = less growth inhibition
Details: exposure time: 5 days
Summary of the method: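 Surviving fraction was calculated by normalising CellTiter-Glo luminescence to the median of DMSO-only wells. Tumour cell lines in log phase were seeded in 384-well plates at 250–500 cells per well, and 24 hours later were exposed continuously for five days to inhibitors at 0.5, 1, 5, 10, 50, 100, 500 and 1000 nM.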

| Test System | surviving fraction (0.5 nM) | surviving fraction (1 nM) | surviving fraction (5 nM) | surviving fraction (10 nM) | surviving fraction (50 nM) | surviving fraction (100 nM) | surviving fraction (500 nM) | surviving fraction (1000 nM) |
| --- | --- | --- | --- | --- | --- | --- | --- | --- |
| 22RV1 PROSTATE | 1.02 ± 0.018 | 0.917 ± 0.047 | 0.618 ± 0.055 | 0.416 ± 0.047 | 0.222 ± 0.03 | 0.119 ± 0.026 | 0.024 ± 0.001 | 0.0357 ± 0.0025 |
| 93VU HEADNECK | 1.03 ± 0.063 | 1.08 ± 0.11 | 1.12 ± 0.085 | 1.09 ± 0.06 | 0.697 ± 0.049 | 0.525 ± 0.046 | 0.249 ± 0.034 | 0.109 ± 0.016 |
| 143B BONE | 1 ± 0.018 | 1.02 ± 0.0085 | 0.957 ± 0.0099 | 0.827 ± 0.013 | 0.417 ± 0.027 | 0.2785 ± 0.00071 | 0.0605 ± 0.0035 | 1.008 ± 0.0092 |
| A549 LUNG | 0.96 ± 0.032 | 0.964 ± 0.039 | 0.963 ± 0.046 | 1.01 ± 0.032 | 0.565 ± 0.031 | 0.496 ± 0.017 | 0.189 ± 0.015 | 0.083 ± 0.001 |
| ASKA SYNOVIAL | 0.792 ± 0.014 | 0.5807 ± 0.0031 | 0.28 ± 0.0042 | 0.292 ± 0.007 | 0.204 ± 0.016 | 0.166 ± 0.0025 | 0.16 ± 0.0079 | 0.224 ± 0.0035 |
| BT20 BREAST | 1.1 ± 0.033 | 1.02 ± 0.11 | 0.823 ± 0.034 | 0.469 ± 0.07 | 0.187 ± 0.019 | 0.191 ± 0.025 | 0.042 ± 0.01 | 0.037 ± 0.0056 |
| BT549 BREAST | 1.07 ± 0.1 | 1.03 ± 0.23 | 0.896 ± 0.087 | 0.378 ± 0.095 | 0.229 ± 0.022 | 0.0903 ± 0.019 | 0.0257 ± 0.0057 | 0.0267 ± 0.0015 |
| C33A CERVIX | 0.842 ± 0.066 | 0.988 ± 0.068 | 0.779 ± 0.055 | 0.604 ± 0.045 | 0.122 ± 0.013 | 0.085 ± 0.0096 | 0.0347 ± 0.0086 | 0.04 ± 0.0079 |
| CADOES1 SOFT TISSUE | 0.93 ± 0.061 | 0.795 ± 0.037 | 0.926 ± 0.078 | 0.812 ± 0.12 | 0.573 ± 0.052 | 0.323 ± 0.035 | 0.093 ± 0.0087 | 0.0643 ± 0.011 |
| CAL51 BREAST | 0.903 ± 0.044 | 0.919 ± 0.026 | 0.872 ± 0.029 | 0.62 ± 0.055 | 0.112 ± 0.011 | 0.0608 ± 0.0036 | 0.0247 ± 0.00076 | 0.0238 ± 0.0015 |
| CAL72 BONE | 1.05 ± 0.041 | 0.743 ± 0.018 | 1.01 ± 0.033 | 0.826 ± 0.045 | 0.298 ± 0.042 | 0.299 ± 0.018 | 0.0937 ± 0.0021 | 0.114 ± 0.0055 |
| CAL120 BREAST | 0.955 ± 0.015 | 0.916 ± 0.019 | 0.902 ± 0.024 | 0.822 ± 0.065 | 0.401 ± 0.038 | 0.285 ± 0.019 | 0.0702 ± 0.0011 | 0.0468 ± 0.0028 |
| CASKI CERVIX | 0.684 ± 0.14 | 0.85 ± 0.04 | 0.221 ± 0.044 | 0.292 ± 0.049 | 0.035 ± 0.005 | 0.143 ± 0.032 | 0.0187 ± 0.0021 | 0.0253 ± 0.0015 |
| CHLA90 AUTONOMIC GANGLIA | 1 ± 0.024 | 0.982 ± 0.024 | 0.866 ± 0.053 | 0.763 ± 0.041 | 0.414 ± 0.038 | 0.187 ± 0.026 | 0.054 ± 0.0035 | 0.0323 ± 0.0021 |
| CME SYNOVIAL | 1.14 ± 0.094 | 0.998 ± 0.15 | 0.567 ± 0.12 | 0.328 ± 0.037 | 0.237 ± 0.023 | 0.215 ± 0.016 | 0.203 ± 0.013 | 0.284 ± 0.036 |
| COLO320DM LARGE INTESTINE | 1.07 ± 0.064 | 1.13 ± 0.02 | 1.13 ± 0.12 | 1.09 ± 0.035 | 1.05 ± 0.091 | 0.787 ± 0.14 | 0.446 ± 0.014 | 0.388 ± 0.02 |
| DU4475 BREAST | 0.818 ± 0.31 | 1.23 ± 0.41 | 0.233 ± 0.071 | 0.139 ± 0.054 | 0.029 ± 0.0066 | 0.0287 ± 0.0051 | 0.025 ± 0.0046 | 0.0273 ± 0.0051 |
| H23 LUNG | 1.01 ± 0.016 | 1.03 ± 0.027 | 1 ± 0.034 | 0.629 ± 0.058 | 0.403 ± 0.031 | 0.237 ± 0.028 | 0.0293 ± 0.0015 | 0.0267 ± 0.0021 |
| HCC78 LUNG | 0.894 ± 0.24 | 0.733 ± 0.17 | 0.63 ± 0.1 | 0.538 ± 0.083 | 0.0747 ± 0.013 | 0.0363 ± 0.0042 | 0.0317 ± 0.0015 | 0.0217 ± 0.0042 |

| Test System | surviving fraction (0.5 nM) | surviving fraction (1 nM) | surviving fraction (5 nM) | surviving fraction (10 nM) | surviving fraction (50 nM) | surviving fraction (100 nM) | surviving fraction (500 nM) | surviving fraction (1000 nM) |
| --- | --- | --- | --- | --- | --- | --- | --- | --- |
| HCC202 BREAST | 1.2 ± 0.18 | 1.26 ± 0.26 | 0.896 ± 0.058 | 1.04 ± 0.49 | 0.697 ± 0.069 | 0.457 ± 0.065 | 0.0987 ± 0.019 | 0.0423 ± 0.0078 |
| HCC1395 BREAST | 0.926 ± 0.18 | 1.11 ± 0.18 | 1.03 ± 0.036 | 1.19 ± 0.11 | 0.928 ± 0.11 | 1.07 ± 0.08 | 0.693 ± 0.085 | 0.808 ± 0.091 |
| HCC1806 BREAST | 0.963 ± 0.033 | 1.01 ± 0.076 | 0.75 ± 0.068 | 0.369 ± 0.039 | 0.102 ± 0.013 | 0.0793 ± 0.005 | 0.0243 ± 0.0011 | 0.0257 ± 0.0011 |
| HCC1954 BREAST | 1.03 ± 0.19 | 0.955 ± 0.18 | 0.829 ± 0.015 | 0.772 ± 0.058 | 0.465 ± 0.067 | 0.169 ± 0.0085 | 0.0355 ± 0.00071 | 0.0328 ± 0.00035 |
| HCT15 LARGE INTESTINE | 1.01 ± 0.016 | 0.986 ± 0.044 | 1.01 ± 0.045 | 0.987 ± 0.02 | 0.486 ± 0.044 | 0.18 ± 0.018 | 0.0863 ± 0.005 | 0.066 ± 0.0027 |
| HELA CERVIX | 0.998 ± 0.055 | 1.03 ± 0.022 | 0.897 ± 0.029 | 0.595 ± 0.031 | 0.316 ± 0.007 | 0.309 ± 0.022 | 0.0252 ± 0.00076 | 0.0252 ± 0.0013 |
| HOS BONE | 1.009 ± 0.0046 | 1 ± 0.028 | 0.686 ± 0.0056 | 0.352 ± 0.1 | 0.087 ± 0.0053 | 0.043 ± 0.007 | 0.024 | 0.0283 ± 0.0015 |
| HOSMNG BONE | 0.976 ± 0.05 | 1.02 ± 0.032 | 0.983 ± 0.083 | 0.98 ± 0.07 | 0.549 ± 0.051 | 0.506 ± 0.025 | 0.165 ± 0.056 | 0.153 ± 0.037 |
| HSSYII SYNOVIAL | 0.901 ± 0.025 | 0.759 ± 0.018 | 0.381 ± 0.02 | 0.157 ± 0.015 | 0.0632 ± 0.0042 | 0.0312 ± 0.002 | 0.0185 ± 0.0022 | 0.0217 ± 0.0019 |
| HT1080 SOFT TISSUE | 0.992 ± 0.01 | 0.95 ± 0.041 | 0.553 ± 0.0044 | 0.333 ± 0.037 | 0.265 ± 0.0078 | 0.222 ± 0.018 | 0.0267 ± 0.00058 | 0.0437 ± 0.0045 |
| HU09 BONE | 0.924 ± 0.04 | 0.964 ± 0.11 | 0.861 ± 0.13 | 0.539 ± 0.1 | 0.0467 ± 0.0046 | 0.0277 ± 0.005 | 0.0227 ± 0.0023 | 0.0247 ± 0.0021 |
| HUO3N1 BONE | 0.977 ± 0.053 | 1.02 ± 0.021 | 0.953 ± 0.052 | 0.857 ± 0.049 | 0.47 ± 0.016 | 0.311 ± 0.025 | 0.08133 ± 0.00058 | 0.0547 ± 0.00058 |
| JIMT1 BREAST | 0.943 ± 0.0048 | 0.963 ± 0.025 | 0.994 ± 0.04 | 0.901 ± 0.036 | 0.56 ± 0.055 | 0.48 ± 0.017 | 0.225 ± 0.012 | 0.087 ± 0.019 |
| JURKAT HAEMATOPOIETIC AND LYMPHOID TISSUE | 1.05 ± 0.023 | 1.049 ± 0.0078 | 0.61 ± 0.035 | 0.129 ± 0.004 | 0.0323 ± 0.00058 | 0.0293 ± 0.00058 | 0.027 | 0.0297 ± 0.00058 |
| KPD BONE | 1.06 ± 0.057 | 0.963 ± 0.056 | 0.897 ± 0.075 | 0.909 ± 0.05 | 0.242 ± 0.048 | 0.116 ± 0.011 | 0.0297 ± 0.0031 | 0.0317 ± 0.0015 |
| LM7 BONE | 0.95 ± 0.033 | 1.05 ± 0.073 | 0.902 ± 0.051 | 0.818 ± 0.014 | 0.245 ± 0.016 | 0.229 ± 0.018 | 0.0483 ± 0.0038 | 0.0483 ± 0.0065 |
| LNCAP PROSTATE | 0.973 ± 0.018 | 0.863 ± 0.076 | 0.483 ± 0.075 | 0.33 ± 0.029 | 0.124 ± 0.013 | 0.0727 ± 0.01 | 0.024 ± 0.0017 | 0.0247 ± 0.0011 |
| MCF7 BREAST | 0.857 ± 0.038 | 0.868 ± 0.042 | 0.859 ± 0.053 | 0.7804 ± 0.0075 | 0.589 ± 0.032 | 0.469 ± 0.0095 | 0.0898 ± 0.0037 | 0.0774 ± 0.008 |
| MDAMB134 BREAST | 0.865 ± 0.0028 | 0.835 ± 0.098 | 1.03 ± 0.021 | 0.9 ± 0.098 | 0.734 ± 0.023 | 0.693 ± 0.085 | 0.106 ± 0.019 | 0.0295 ± 0.0035 |
